Values joined by “and” are separate entries in the source; they are usually repeats but may differ in a detail not shown here. Identical values can stand only once.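 Where inhibition never reached the appropriate level, the endpoint shown equals the highest concentration tested. Otherwise, values were interpolated linearly from a five-concentration, 48-hour dose response in 96-well plates. GI50 is the concentration that inhibits growth by half. At the TGI there is no net growth.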
What was measured:
Experiment in all cases: DTP human tumour cell line panel, 48 h
[1] = system: NCI-H522 lung
[2] = system: HOP-92 NSCLC
[3] = system: HS 578T breast
[4] = system: BT-549 breast
[5] = system: PC-3 prostate
[6] = system: SF-539 CNS
[7] = system: SNB-75 CNS
[8] = system: SK-MEL-5 melanoma
[9] = system: NCI-H23 lung
[10] = system: U251 CNS

Row | Structure (SMILES) | TGI [1] | TGI [2] | TGI [3] [µM] | TGI [4] [µM] | TGI [5] [µM] | TGI [6] [µM] | TGI [7] | TGI [8] | TGI [9] | TGI [10] | GI50 [1] [nM] | GI50 [2] [nM] | GI50 [3] [nM] | GI50 [4] [µM] | GI50 [5] [µM] | GI50 [6] [nM] | GI50 [7] [nM] | GI50 [8] [nM] | GI50 [9] [µM] | GI50 [10] [nM]
1 | O=C(O)C1=C/C(=C(/c2ccccc2)c2cc(C(=O)O)c(O)c3ccccc23)c2ccccc2C1=O | > 100 µM | > 100 µM | > 100 | > 100 | > 100 | > 100 | > 100 µM | > 100 µM | > 100 µM | > 100000 nM | – | – | – | – | – | – | – | – | – | –
2 | COc1ccc2c(c1)OC(N)=C(C#N)C2c1cc(OC)c(OC)c(OC)c1 (stereo not given) | 0.0631 µM | > 100 µM | > 100 | 0.0836 | > 100 | 31.8 | 45.9 µM | – | > 47.7 µM | 1480 nM | 19.4 | 169 | 40.8 | 0.0268 | 0.0498 | 31.6 | 39.4 | 31.7 | 0.0362 | 32.9
3 | O=C1NC(=NCCc2ccc(F)cc2)S/C1=C\c1ccc2ncccc2c1 | > 25 µM | > 25 µM | > 25 | > 25 | > 25 | > 25 | > 25 µM | > 25 µM | > 25 µM | > 25000 nM | > 25000 | > 25000 | > 25000 | > 25 | > 25 | > 25000 | > 25000 | > 25000 | > 25 | > 25000
4 | O=C1CC(c2c[nH]c3ccc(F)cc23)C(=O)N1 (stereo not given) | > 100 µM | > 100 µM | > 100 | > 100 | > 100 | > 100 | > 100 µM | > 100 µM | > 100 µM | > 100000 nM | > 100000 | > 100000 | > 100000 | > 100 | > 100 | > 100000 | > 100000 | > 100000 | > 100 | > 100000
5 | COc1cc2cc(Oc3ccc(NC(=O)Nc4cc(C(F)(F)F)cc(C(F)(F)F)c4)cc3)c(C)nc2cc1OCCN1CCOCC1 | 7.29 µM | 2.71 µM | 7 | 7.35 | 5.16 | 5.25 | 4.48 µM | 1.66 µM | 6.69 µM | 2850 nM | 1630 | 900 | 1560 | 1.87 | 1.18 | 1540 | 1020 | 885 | 1.66 | 1130
6 | O=C(CS(=O)(=O)c1nc2ccccc2nc1-c1ccccc1)Nc1ccc(F)cc1 | > 100 µM | > 100 µM | 94.3 | > 100 | > 100 | 60.2 | > 100 µM | 94.6 µM | > 100 µM | > 100000 nM | 48200 | 22300 | 29700 | 29.1 | 26 | 18700 | > 100000 | 23900 | > 100 | 37900
7 | CSc1ccc(C2=C(c3ccccc3)C(=O)OC2)cc1 | 2.45 µM | 44.7 µM | 1.22 | > 100 | 21.1 | 12.3 | > 100 µM | 3.56 µM | > 41.1 µM | 7050 nM | 619 | 2130 | 219 | 16.2 | 0.884 | 1490 | 5670 | 732 | 3.78 | 329
8 | COC(=O)NC1C(C)OC(OC2C/C=C(/C)C3C=CC4C(OC5CC(OC6CCC(OC7CC(O)C(OC8CCC(O)C(C)O8)C(C)O7)C(C)O6)C(OC(C)=O)C(C)O5)C(C)CC(C)C4C3(C)/C(O)=C3/C(=O)OC4(CC(C=O)=CC(O)C4/C=C\2C)C3=O)CC1(C)[N+](=O)[O-] (stereo not given) | 2.8 µM and 0.645 µM | 2.69 µM and 3.32 µM | 3.76 | 2.18 | 7.29 | – | 5.14 µM and 3.27 µM | 1.95 µM and 0.511 µM | 2.22 µM and 0.403 µM | 901 nM and 499 nM | 222 | 908 | – | – | – | 28.7 | 1060 | 200 | 0.171 | 179
9 | CCCn1c2c(c3ccccc3c1=O)C(=O)c1ccccc1-2 | 39.6 µM | > 100 µM | > 100 | > 100 | > 100 | > 100 | > 100 µM | > 100 µM | > 100 µM | > 100000 nM | – | – | – | – | – | – | – | – | – | –
10 | COc1cc2oc(-c3cccc(C(=O)Nc4ccc(Cl)cc4)c3)cc(=O)c2c(OC)c1OC | > 100 µM | 5.58 µM | > 100 | > 100 | > 100 | > 100 | > 100 µM | 2.68 µM | > 100 µM | > 100000 nM | 1730 | 1460 | 2950 | 1.18 | 3.4 | 2560 | 2660 | 1280 | 3.6 | 4080
11 | CC1CC2C3CCC4=CC(=O)C=CC4(C)C3(F)C(O)CC2(C)C1(O)C(=O)COP(=O)(O)O (stereo not given) | > 500 µM | > 500 µM | > 500 | > 500 | > 500 | > 500 | > 500 µM | > 500 µM | > 500 µM | > 500000 nM | > 500000 | > 500000 | > 500000 | 160 | > 500 | > 500000 | > 500000 | > 500000 | > 500 | > 500000
12 | C#Cc1cccc(Nc2ncnc3cc(NC(=O)CCl)ccc23)c1 | 0.894 µM | 8.09 µM | 14.2 | 6.99 | 8.33 | 6.82 | 5.01 µM | 6.71 µM | 8.01 µM | 2920 nM | 414 | 3560 | 3710 | 3.23 | 3.69 | 3480 | 1530 | 3370 | 3.26 | 789
